# Measurements as given in US10485235B2, “Aryloxypyrimidinyl ethers as herbicides” (FMC Corporation, priority 2015, dated 2019).
# Tested on: pigweed (Amaranthus retroflexus)
# Test: Test A postemergence, pigweed
# Type: in vivo
# Details: 125 g ai/ha, postemergence; 0 to 100 scale, 0 is no effect, 100 is complete control; approximately 10 days
# Text: (§1) Seeds of plant species selected from barnyardgrass (Echinochloa crus-galli), kochia (Kochia scoparia), ragweed (common ragweed, Ambrosia elatior), ryegrass, Italian (Italian ryegrass, Lolium multiflorum), foxtail, giant (giant foxtail, Setaria faberii), and pigweed (Amaranthus retroflexus), were planted into a blend of loam soil and sand and treated preemergence with a directed soil spray using test chemicals formulated in a non-phytotoxic solvent mixture which included a surfactant.
# (§2) At the same time, plants selected from these weed species and also wheat (Triticum aestivum), corn (Zea mays), blackgrass (Alopecurus myosuroides), and galium (catchweed bedstraw, Galium aparine), were planted in pots containing the same blend of loam soil and sand and treated with postemergence applications of test chemicals formulated in the same manner. Plants ranged in height from 2 to 10 cm and were in the one- to two-leaf stage for the postemergence treatment. Treated plants and untreated controls were maintained in a greenhouse for approximately 10 days, after which time all treated plants were compared to untreated controls and visually evaluated for injury. Plant response ratings, summarized in Table A, are based on a 0 to 100 scale where 0 is no effect and 100 is complete control. A dash (—) response means no test result.
row,SMILES,"Plant response rating, Pigweed"
1,O=C(COc1c(Br)cccc1Oc1ncc(Cl)cn1)C(F)(F)C(F)(F)F [Compound 73],60

# Same assay, conditions: Postemergence, 31 g ai/ha; 0 to 100 scale (0 no effect, 100 complete control)
row,SMILES,"Plant response rating, Pigweed"
1,O=C(COc1c(Br)cccc1Oc1ncc(Cl)cn1)C(F)(F)C(F)(F)F [Compound 73],30

# Tested on: blackgrass (Alopecurus myosuroides)
# Test: Test A postemergence, blackgrass
# Type: in vivo
# Details: 125 g ai/ha, postemergence; 0 to 100 scale, 0 is no effect, 100 is complete control; approximately 10 days
# Text: as §1, §2
row,SMILES,"Plant response rating, Blackgrass"
1,O=C(COc1c(Br)cccc1Oc1ncc(Cl)cn1)C(F)(F)C(F)(F)F [Compound 73],20

# Same assay, conditions: Postemergence, 31 g ai/ha; 0 to 100 scale (0 no effect, 100 complete control)
row,SMILES,"Plant response rating, Blackgrass"
1,O=C(COc1c(Br)cccc1Oc1ncc(Cl)cn1)C(F)(F)C(F)(F)F [Compound 73],0

# Tested on: barnyardgrass (Echinochloa crus-galli)
# Test: Test A postemergence, barnyardgrass
# Type: in vivo
# Details: 125 g ai/ha, postemergence; 0 to 100 scale, 0 is no effect, 100 is complete control; approximately 10 days
# Text: as §1, §2
row,SMILES,"Plant response rating, Barnyardgrass"
1,O=C(COc1c(Br)cccc1Oc1ncc(Cl)cn1)C(F)(F)C(F)(F)F [Compound 73],10

# Same assay, conditions: Postemergence, 31 g ai/ha; 0 to 100 scale (0 no effect, 100 complete control)
row,SMILES,"Plant response rating, Barnyardgrass"
1,O=C(COc1c(Br)cccc1Oc1ncc(Cl)cn1)C(F)(F)C(F)(F)F [Compound 73],0

# Tested on: rice (Oryza sativa)
# Test: Test B flooded paddy test, rice
# Type: in vivo
# Details: 250 g ai/ha, Flood; visual rating after 13 to 15 days; scale 0 to 100, 0 is no effect, 100 is complete control
# Protocol: (§3) Plant species in the flooded paddy test selected from rice (Oryza sativa), sedge, umbrella (small-flower umbrella sedge, Cyperus difformis), ducksalad (Heteranthera limosa), and barnyardgrass (Echinochloa crus-galli) were grown to the 2-leaf stage for testing. At time of treatment, test pots were flooded to 3 cm above the soil surface, treated by application of test compounds directly to the paddy water, and then maintained at that water depth for the duration of the test. Treated plants and controls were maintained in a greenhouse for 13 to 15 days, after which time all species were compared to controls and visually evaluated. Plant response ratings, summarized in Table B, are based on a scale of 0 to 100 where 0 is no effect and 100 is complete control. A dash (—) response means no test result.
row,SMILES,"Plant response rating, Rice"
1,O=C(COc1c(Br)cccc1Oc1ncc(Cl)cn1)C(F)(F)C(F)(F)F [Compound 73],0

# Tested on: foxtail, giant (giant foxtail, Setaria faberii)
# Test: Test A preemergence, giant foxtail
# Type: in vivo
# Details: Preemergence, 31 g ai/ha; 0 to 100 scale (0 no effect, 100 complete control)
# Text: as §1, §2
row,SMILES,"Plant response rating, Foxtail, Giant"
1,O=C(COc1c(Br)cccc1Oc1ncc(Cl)cn1)C(F)(F)C(F)(F)F [Compound 73],0

# Same assay, conditions: Preemergence, 125 g ai/ha; 0 to 100 scale (0 no effect, 100 complete control)
row,SMILES,"Plant response rating, Foxtail, Giant"
1,O=C(COc1c(Br)cccc1Oc1ncc(Cl)cn1)C(F)(F)C(F)(F)F [Compound 73],0

# Tested on: galium (catchweed bedstraw, Galium aparine)
# Test: Test A postemergence, galium
# Type: in vivo
# Details: 125 g ai/ha, postemergence; 0 to 100 scale, 0 is no effect, 100 is complete control; approximately 10 days
# Text: as §1, §2
row,SMILES,"Plant response rating, Galium"
1,O=C(COc1c(Br)cccc1Oc1ncc(Cl)cn1)C(F)(F)C(F)(F)F [Compound 73],40

# Same assay, conditions: Postemergence, 31 g ai/ha; 0 to 100 scale (0 no effect, 100 complete control)
row,SMILES,"Plant response rating, Galium"
1,O=C(COc1c(Br)cccc1Oc1ncc(Cl)cn1)C(F)(F)C(F)(F)F [Compound 73],10

# Tested on: foxtail, giant (giant foxtail, Setaria faberii)
# Test: Test A postemergence, giant foxtail
# Type: in vivo
# Details: 125 g ai/ha, postemergence; 0 to 100 scale, 0 is no effect, 100 is complete control; approximately 10 days
# Text: as §1, §2
row,SMILES,"Plant response rating, Foxtail, Giant"
1,O=C(COc1c(Br)cccc1Oc1ncc(Cl)cn1)C(F)(F)C(F)(F)F [Compound 73],10

# Same assay, conditions: Postemergence, 31 g ai/ha; 0 to 100 scale (0 no effect, 100 complete control)
row,SMILES,"Plant response rating, Foxtail, Giant"
1,O=C(COc1c(Br)cccc1Oc1ncc(Cl)cn1)C(F)(F)C(F)(F)F [Compound 73],0

# Tested on: ragweed (common ragweed, Ambrosia elatior)
# Test: Test A postemergence, ragweed
# Type: in vivo
# Details: 125 g ai/ha, postemergence; 0 to 100 scale, 0 is no effect, 100 is complete control; approximately 10 days
# Text: as §1, §2
row,SMILES,"Plant response rating, Ragweed"
1,O=C(COc1c(Br)cccc1Oc1ncc(Cl)cn1)C(F)(F)C(F)(F)F [Compound 73],0

# Same assay, conditions: Postemergence, 31 g ai/ha; 0 to 100 scale (0 no effect, 100 complete control)
row,SMILES,"Plant response rating, Ragweed"
1,O=C(COc1c(Br)cccc1Oc1ncc(Cl)cn1)C(F)(F)C(F)(F)F [Compound 73],0

# Tested on: pigweed (Amaranthus retroflexus)
# Test: Test A preemergence, pigweed
# Type: in vivo
# Details: Preemergence, 31 g ai/ha; 0 to 100 scale (0 no effect, 100 complete control)
# Text: as §1, §2
row,SMILES,"Plant response rating, Pigweed"
1,O=C(COc1c(Br)cccc1Oc1ncc(Cl)cn1)C(F)(F)C(F)(F)F [Compound 73],40

# Same assay, conditions: Preemergence, 125 g ai/ha; 0 to 100 scale (0 no effect, 100 complete control)
row,SMILES,"Plant response rating, Pigweed"
1,O=C(COc1c(Br)cccc1Oc1ncc(Cl)cn1)C(F)(F)C(F)(F)F [Compound 73],50

# Tested on: kochia (Kochia scoparia)
# Test: Test A preemergence, kochia
# Type: in vivo
# Details: Preemergence, 31 g ai/ha; 0 to 100 scale (0 no effect, 100 complete control)
# Text: as §1, §2
row,SMILES,"Plant response rating, Kochia"
1,O=C(COc1c(Br)cccc1Oc1ncc(Cl)cn1)C(F)(F)C(F)(F)F [Compound 73],0

# Same assay, conditions: Preemergence, 125 g ai/ha; 0 to 100 scale (0 no effect, 100 complete control)
row,SMILES,"Plant response rating, Kochia"
1,O=C(COc1c(Br)cccc1Oc1ncc(Cl)cn1)C(F)(F)C(F)(F)F [Compound 73],0

# Tested on: ryegrass, Italian (Italian ryegrass, Lolium multiflorum)
# Test: Test A preemergence, Italian ryegrass
# Type: in vivo
# Details: Preemergence, 31 g ai/ha; 0 to 100 scale (0 no effect, 100 complete control)
# Text: as §1, §2
row,SMILES,"Plant response rating, Ryegrass, Italian"
1,O=C(COc1c(Br)cccc1Oc1ncc(Cl)cn1)C(F)(F)C(F)(F)F [Compound 73],0

# Same assay, conditions: Preemergence, 125 g ai/ha; 0 to 100 scale (0 no effect, 100 complete control)
row,SMILES,"Plant response rating, Ryegrass, Italian"
1,O=C(COc1c(Br)cccc1Oc1ncc(Cl)cn1)C(F)(F)C(F)(F)F [Compound 73],0

# Tested on: wheat (Triticum aestivum)
# Test: Test A postemergence, wheat
# Type: in vivo
# Details: 125 g ai/ha, postemergence; 0 to 100 scale, 0 is no effect, 100 is complete control; approximately 10 days
# Text: as §1, §2
row,SMILES,"Plant response rating, Wheat"
1,O=C(COc1c(Br)cccc1Oc1ncc(Cl)cn1)C(F)(F)C(F)(F)F [Compound 73],0

# Same assay, conditions: Postemergence, 31 g ai/ha; 0 to 100 scale (0 no effect, 100 complete control)
row,SMILES,"Plant response rating, Wheat"
1,O=C(COc1c(Br)cccc1Oc1ncc(Cl)cn1)C(F)(F)C(F)(F)F [Compound 73],0

# Tested on: barnyardgrass (Echinochloa crus-galli)
# Test: Test B flooded paddy test, barnyardgrass
# Type: in vivo
# Details: 250 g ai/ha, Flood; visual rating after 13 to 15 days; scale 0 to 100, 0 is no effect, 100 is complete control
# Protocol: as §3
row,SMILES,"Plant response rating, Barnyardgrass"
1,O=C(COc1c(Br)cccc1Oc1ncc(Cl)cn1)C(F)(F)C(F)(F)F [Compound 73],0

# Tested on: sedge, umbrella (small-flower umbrella sedge, Cyperus difformis)
# Test: Test B flooded paddy test, umbrella sedge
# Type: in vivo
# Details: 250 g ai/ha, Flood; visual rating after 13 to 15 days; scale 0 to 100, 0 is no effect, 100 is complete control
# Protocol: as §3
row,SMILES,"Plant response rating, Sedge, Umbrella"
1,O=C(COc1c(Br)cccc1Oc1ncc(Cl)cn1)C(F)(F)C(F)(F)F [Compound 73],0

# Tested on: ragweed (common ragweed, Ambrosia elatior)
# Test: Test A preemergence, ragweed
# Type: in vivo
# Details: Preemergence, 31 g ai/ha; 0 to 100 scale (0 no effect, 100 complete control)
# Text: as §1, §2
row,SMILES,"Plant response rating, Ragweed"
1,O=C(COc1c(Br)cccc1Oc1ncc(Cl)cn1)C(F)(F)C(F)(F)F [Compound 73],0

# Same assay, conditions: Preemergence, 125 g ai/ha; 0 to 100 scale (0 no effect, 100 complete control)
row,SMILES,"Plant response rating, Ragweed"
1,O=C(COc1c(Br)cccc1Oc1ncc(Cl)cn1)C(F)(F)C(F)(F)F [Compound 73],0

# Tested on: barnyardgrass (Echinochloa crus-galli)
# Test: Test A preemergence, barnyardgrass
# Type: in vivo
# Details: Preemergence, 31 g ai/ha; 0 to 100 scale (0 no effect, 100 complete control)
# Text: as §1, §2
row,SMILES,"Plant response rating, Barnyardgrass"
1,O=C(COc1c(Br)cccc1Oc1ncc(Cl)cn1)C(F)(F)C(F)(F)F [Compound 73],0

# Same assay, conditions: Preemergence, 125 g ai/ha; 0 to 100 scale (0 no effect, 100 complete control)
row,SMILES,"Plant response rating, Barnyardgrass"
1,O=C(COc1c(Br)cccc1Oc1ncc(Cl)cn1)C(F)(F)C(F)(F)F [Compound 73],0

# Tested on: ducksalad (Heteranthera limosa)
# Test: Test B flooded paddy test, ducksalad
# Type: in vivo
# Details: 250 g ai/ha, Flood; visual rating after 13 to 15 days; scale 0 to 100, 0 is no effect, 100 is complete control
# Protocol: as §3
row,SMILES,"Plant response rating, Ducksalad"
1,O=C(COc1c(Br)cccc1Oc1ncc(Cl)cn1)C(F)(F)C(F)(F)F [Compound 73],0

# Tested on: corn (Zea mays)
# Test: Test A postemergence, corn
# Type: in vivo
# Details: 125 g ai/ha, postemergence; 0 to 100 scale, 0 is no effect, 100 is complete control; approximately 10 days
# Text: as §1, §2
row,SMILES,"Plant response rating, Corn"
1,O=C(COc1c(Br)cccc1Oc1ncc(Cl)cn1)C(F)(F)C(F)(F)F [Compound 73],10

# Same assay, conditions: Postemergence, 31 g ai/ha; 0 to 100 scale (0 no effect, 100 complete control)
row,SMILES,"Plant response rating, Corn"
1,O=C(COc1c(Br)cccc1Oc1ncc(Cl)cn1)C(F)(F)C(F)(F)F [Compound 73],0

# Tested on: kochia (Kochia scoparia)
# Test: Test A postemergence, kochia
# Type: in vivo
# Details: 125 g ai/ha, postemergence; 0 to 100 scale, 0 is no effect, 100 is complete control; approximately 10 days
# Text: as §1, §2
row,SMILES,"Plant response rating, Kochia"
1,O=C(COc1c(Br)cccc1Oc1ncc(Cl)cn1)C(F)(F)C(F)(F)F [Compound 73],50

# Same assay, conditions: Postemergence, 31 g ai/ha; 0 to 100 scale (0 no effect, 100 complete control)
row,SMILES,"Plant response rating, Kochia"
1,O=C(COc1c(Br)cccc1Oc1ncc(Cl)cn1)C(F)(F)C(F)(F)F [Compound 73],0

# Tested on: ryegrass, Italian (Italian ryegrass, Lolium multiflorum)
# Test: Test A postemergence, Italian ryegrass
# Type: in vivo
# Details: 125 g ai/ha, postemergence; 0 to 100 scale, 0 is no effect, 100 is complete control; approximately 10 days
# Text: as §1, §2
row,SMILES,"Plant response rating, Ryegrass, Italian"
1,O=C(COc1c(Br)cccc1Oc1ncc(Cl)cn1)C(F)(F)C(F)(F)F [Compound 73],0

# Same assay, conditions: Postemergence, 31 g ai/ha; 0 to 100 scale (0 no effect, 100 complete control)
row,SMILES,"Plant response rating, Ryegrass, Italian"
1,O=C(COc1c(Br)cccc1Oc1ncc(Cl)cn1)C(F)(F)C(F)(F)F [Compound 73],0
